Data: patent US12227512B2, “Benzimidazoles and methods of using same” (priority 2019, dated 2025)
Read-outs that look alike come from different tables or passages of the source.

Key:
[1] = tested on: SUFU-KO-Light cells expressing Gli-luciferase; assay: Dose-effect curves, dual-Glo luciferase, Compusyn; format: cell-based
MB002 cells = assay: MTT assay, cell proliferation; format: cell-based
SARS-CoV-2 [2] = conditions: infected Vero cells, 24 hours post-infection, Western blot
[3] = tested on: Puerto Rica strain of infectious Zika virus; assay: microbe, parasite or virus in culture; format: cell-based; conditions: Vero
[4] = tested on: Zika virus, Dengue, Yellow Fever Virus, West Nile Virus; assay: organism not typed; format: cell-based; conditions: read-out: EC50, viral replication
[5] = tested on: Raji (Burkitt Lymphoma cell line); assay: Raji cell viability / proliferation; conditions: Homo sapiens, read-out: IC50, Raji cell proliferation
[6] = tested on: Rift Valley Fever Virus (RVFV); assay: microbe, parasite or virus in culture; format: cell-based
[7] = tested on: Gli-luciferace activity in the SUFU-KO-light cells; assay: SUFU-KO-Light assay, inhibition of Gli-luciferase activity; format: cell-based; conditions: read-out: IC50 (μM) SUFU-KO-Light; inhibition of Gli-luciferase activity; listed as Isis-11 (−isomer/E2)
Source text: IC50 SUFO-KO-Light values are for inhibition of Gli-luciferace activity in the SUFU-KO-light cells developed by the James Chen laboratory at Stanford University.

[8] = Maximum tolerated dose (MTD) in mice; format: in vivo; conditions: AG129 mice; for Alive/total / MDD ± SD (average day of death) / Mean wt. change (g) ± SD: q 3 d × 3; for Alive/total / MDD ± SD (average day of death): 14 days; for Mean wt. change (g) ± SD: weight on 0 and 2 days post-initial treatment
Method: Without wishing to be bound by theory, the purpose of this study is to further identify the MTD and dosing frequency that can be used for Isis-11 (E2) in future antiviral efficacy studies.
Animals: 21 AG129 mice produced by an in-house colony were used. Groups of animals were assigned by weight to experimental groups and individually marked with ear tags.
Test agent: Isis-11 (E2) was provided by University of Utah for testing in the mouse model.
[…] Additional treatments were administered at various time points. Mice were monitored for mortality until 14 days post-initial treatment (dpi). Individual weights were measured daily 0-10 dpi and on 14 dpi.
Statistical analysis: Survival data were analyzed using the Wilcoxon log-rank survival analysis and all other statistical analyses were done using one-way ANOVA using a Bonferroni group comparison (Prism 5, GraphPad Software, Inc.).

[9] = Mouse PK evaluation, plasma, IV; conditions: CD-1 mice; for AUC(0-inf): AUCInf; for MRT inf: MRTInf_obs
SARS-CoV-2 [10] = assay: microbe, parasite or virus in culture; conditions: Severe acute respiratory syndrome coronavirus 2, Vero C1008, read-out: EC50, inhibition of cell death
UW-426 (Hh subcategory) = assay: MTT assay, Medulloblastoma cell line; format: cell-based; conditions: UW426
Method: (§1) The EC50 values shown below in Table 9 were determined for Isis-11 (E2) by MTT assay in the Medulloblastoma cell lines as indicated.

Shh-NPD (Hh subcategory) = assay: MTT assay, Medulloblastoma cell line; format: cell-based
Method: as §1

[11] = CD-1, mouse, in vivo, iv, 3 mg/kg, Mean, 3 mg/kg IV
[12] = CD-1, mouse, in vivo, iv, 3 mg/kg, Mouse 1, 3 mg/kg IV
[13] = CD-1, mouse, in vivo, iv, 3 mg/kg, Mouse 2, 3 mg/kg IV

CN(C)CCCn1c(N)nc2ccc3c(c21)CC(CN(C)C)O3 (single isomer, unassigned) [Compound E2]
EC50 ([1]; read-out: Dose E2): 63.5 nM | EC50 ([1]; read-out: EC50 as single agent): 60 nM | EC50 (MB002 cells; MB002): 430 nM | IC50 (MB002 cells; MB002, read-out: Dose E2): 320 nM | SARS-CoV-2 nucleocapsid protein levels (SARS-CoV-2 [2]): dose-dependent reduction of viral protein | EC50 [3]: 80 nM | EC50 [4]: 290 to 320 nM | IC50 [5]: 200 nM | activity relative to BCX4430 against RVFV [6]: 92 fold | EC50 ([6]; Rift Valley fever virus): 450 nM | IC50 [7]: 0.1 µM | Alive/total ([8]; 1.0 mg/kg/d): 3/3 | MDD ± SD (average day of death) ([8]; 1.0 mg/kg/d): >14.0 ± 0.0 days | Mean wt. change (g) ± SD ([8]; 1.0 mg/kg/d): -1.2 ± 0.8 g | tolerability ([8]; 3.2 mg/kg eod or q3d): well-tolerated | mortality and weight loss ([8]; 3.2 mg/kg i.p.): no mortality or weight loss | Alive/total ([8]; 3.2 mg/kg/d): 3/3 | MDD ± SD (average day of death) ([8]; 3.2 mg/kg/d): >14.0 ± 0.0 days | Mean wt. change (g) ± SD ([8]; 3.2 mg/kg/d): -0.1 ± 0.8 g | mortality (animals succumbing to toxicity) ([8]; 10 mg/kg i.p., eod or q3d): 2 of 5 | body weight ([8]; 10 mg/kg i.p., between 0 and 14 days after initial treatment): some transient weight loss, but an overall weight gain | mortality ([8]; 32 mg/kg i.p., eod for 4 treatments or q3d for 3 treatments): all succumbed | body weight ([8]; 32 mg/kg i.p., eod or q3d): weight loss | tolerability, second study ([8]; 3.2 or 1.0 mg/kg/d once every third day): well-tolerated with no indication of toxicity | tolerability ([8]; 10 or 32 mg/kg, eod or q3d): toxic | toxicity, initial study ([8]; administered bid, once a day at total daily doses of 32, 10, or 3.2 mg/kg/d): substantial toxicity | MTD at 14 days ([8]; mouse, in vivo, ip): 3.2 mg/kg | AUC_%Extrap_obs, Mean ([9]; 3 mg/kg IV): 22.3% | AUC_%Extrap_obs, Mouse 1 ([9]; 3 mg/kg IV): 10.4% | AUC_%Extrap_obs, Mouse 2 ([9]; 3 mg/kg IV): 18.9% | AUC_%Extrap_obs, Mouse 3 ([9]; 3 mg/kg IV): 37.6% | AUClast, Mean ([9]; 3 mg/kg IV): 439 ng·h/mL | AUClast, Mouse 1 ([9]; 3 mg/kg IV): 472 ng·h/mL | AUClast, Mouse 2 ([9]; 3 mg/kg IV): 360 ng·h/mL | AUClast, Mouse 3 ([9]; 3 mg/kg IV): 487 ng·h/mL | AUClast/D, Mean ([9]; 3 mg/kg IV): 146 | AUClast/D, Mouse 1 ([9]; 3 mg/kg IV): 157 | AUClast/D, Mouse 2 ([9]; 3 mg/kg IV): 120 | AUClast/D, Mouse 3 ([9]; 3 mg/kg IV): 162 | C0, Mean ([9]; 3 mg/kg IV): 794 ng/mL | C0, Mouse 1 ([9]; 3 mg/kg IV): 861 ng/mL | C0, Mouse 2 ([9]; 3 mg/kg IV): 801 ng/mL | C0, Mouse 3 ([9]; 3 mg/kg IV): 720 ng/mL | Cl_obs, Mean ([9]; 3 mg/kg IV): 91 mL/min/kg | Cl_obs, Mouse 1 ([9]; 3 mg/kg IV): 95.0 mL/min/kg | Cl_obs, Mouse 2 ([9]; 3 mg/kg IV): 113 mL/min/kg | Cl_obs, Mouse 3 ([9]; 3 mg/kg IV): 64.1 mL/min/kg | Vss_obs, Mean ([9]; 3 mg/kg IV): 71.1 L/kg | Vss_obs, Mouse 1 ([9]; 3 mg/kg IV): 43.7 L/kg | Vss_obs, Mouse 2 ([9]; 3 mg/kg IV): 82.5 L/kg | Vss_obs, Mouse 3 ([9]; 3 mg/kg IV): 87.0 L/kg | Plasma concentration, Mean ([9]; 3 mg/kg IV, 0.083 h): 457 ng/mL | Plasma concentration, Mouse 1 ([9]; 3 mg/kg IV, 0.083 h): 445 ng/mL | Plasma concentration, Mouse 2 ([9]; 3 mg/kg IV, 0.083 h): 452 ng/mL | Plasma concentration, Mouse 3 ([9]; 3 mg/kg IV, 0.083 h): 473 ng/mL | Plasma concentration, Mean ([9]; 3 mg/kg IV, 0.25 h): 155 ng/mL | Plasma concentration, Mouse 1 ([9]; 3 mg/kg IV, 0.25 h): 118 ng/mL | Plasma concentration, Mouse 2 ([9]; 3 mg/kg IV, 0.25 h): 143 ng/mL | Plasma concentration, Mouse 3 ([9]; 3 mg/kg IV, 0.25 h): 203 ng/mL | Plasma concentration, Mean ([9]; 3 mg/kg IV, 0.5 h): 98 ng/mL | Plasma concentration, Mouse 1 ([9]; 3 mg/kg IV, 0.5 h): 158 ng/mL | Plasma concentration, Mouse 2 ([9]; 3 mg/kg IV, 0.5 h): 60.2 ng/mL | Plasma concentration, Mouse 3 ([9]; 3 mg/kg IV, 0.5 h): 75.5 ng/mL | Plasma concentration, Mean ([9]; 3 mg/kg IV, 1 h): 51.1 ng/mL | Plasma concentration, Mouse 1 ([9]; 3 mg/kg IV, 1 h): 64.0 ng/mL | Plasma concentration, Mouse 2 ([9]; 3 mg/kg IV, 1 h): 42.7 ng/mL | Plasma concentration, Mouse 3 ([9]; 3 mg/kg IV, 1 h): 46.5 ng/mL | Plasma concentration, Mean ([9]; 3 mg/kg IV, 2 h): 27.2 ng/mL | Plasma concentration, Mouse 1 ([9]; 3 mg/kg IV, 2 h): 31.9 ng/mL | Plasma concentration, Mouse 2 ([9]; 3 mg/kg IV, 2 h): 26.8 ng/mL | Plasma concentration, Mouse 3 ([9]; 3 mg/kg IV, 2 h): 22.8 ng/mL | Plasma concentration, Mean ([9]; 3 mg/kg IV, 4 h): 19.0 ng/mL | Plasma concentration, Mouse 1 ([9]; 3 mg/kg IV, 4 h): 25.4 ng/mL | Plasma concentration, Mouse 2 ([9]; 3 mg/kg IV, 4 h): 11.7 ng/mL | Plasma concentration, Mouse 3 ([9]; 3 mg/kg IV, 4 h): 19.8 ng/mL | Plasma concentration, Mean ([9]; 3 mg/kg IV, 8 h): 8.9 ng/mL | Plasma concentration, Mouse 1 ([9]; 3 mg/kg IV, 8 h): 8.79 ng/mL | Plasma concentration, Mouse 2 ([9]; 3 mg/kg IV, 8 h): 7.76 ng/mL | Plasma concentration, Mouse 3 ([9]; 3 mg/kg IV, 8 h): 10.2 ng/mL | Plasma concentration, Mean ([9]; 3 mg/kg IV, 24 h): 6.9 ng/mL | Plasma concentration, Mouse 1 ([9]; 3 mg/kg IV, 24 h): 4.57 ng/mL | Plasma concentration, Mouse 2 ([9]; 3 mg/kg IV, 24 h): 4.10 ng/mL | Plasma concentration, Mouse 3 ([9]; 3 mg/kg IV, 24 h): 12.1 ng/mL | AUC(0-inf) [9, 11]: 485 ng·h/mL | AUC(0-inf) [9, 12]: 526 ng·h/mL | AUC(0-inf) [9, 13]: 444 ng·h/mL | MRT inf [9, 11]: 9.9 h | MRT inf [9, 12]: 7.67 h | MRT inf [9, 13]: 12.2 h | half-life ([9]; CD-1, mouse, in vivo, iv, 3 mg/kg, T1/2, Mouse 2, 3 mg/kg IV): 852 min | EC50 (SARS-CoV-2 [10]): 142 nM | EC50 (UW-426 (Hh subcategory)): 105 nM | EC50 (Shh-NPD (Hh subcategory)): 720 nM
